Measured values published in article PMC12386934, “Characteristics and Potential of KSL, KSL-W, and Dadapin-1 Antimicrobial Peptides for Preventing Infections of Orthopedic Prosthetic Devices: Identifying the Most Robust Candidate” (International Journal of Molecular Sciences, 2025).
Where a SMILES comes first, the peptide text is derived from it.

Experiments:
[1] = cited from earlier work
Text: In 2021, aiming at identifying AMPs for a possible application in the prevention or treatment of prosthetic orthopedic infections, our group conducted an extensive systematic review on known short-chain AMPs, primarily based on the Database of Antimicrobial Activity and Structure of Peptides (DBAASP). The choice of considering short-chain peptides was dictated by the potentially lower allergenic risk offered by small peptides. The query included all monomeric AMPs with a length spanning from 7 to 13 amino acids. The research results provided a list of 415 entries, which were then extend ...

[2] = tested on: MG63 cells co-cultured with S. aureus ATCC 25923; test: Suppression of S. aureus cytotoxicity in co-culture, LDH assay; assay type: cell-based, human; details: MG63 co-cultured with S. aureus ATCC 25923, 24 h, lowest concentration tested
Description: KSL-W was the peptide selected to investigate the efficacy in suppressing the cytotoxicity of S. aureus ATCC 25923 on osteoblast-like MG63 cells. S. aureus ATCC 25923 was thawed from the frozen stock and plated on MHA and incubated at 37 °C for 24 h.
A suspension of MG63 cells was prepared in complete DMEM at a concentration of 5 × 10^4 cells/mL. A total of 100 µL of cell suspension was added to each well of a 96-well cell culture-treated plate (137101, Nunclon Delta Black Microwell, ThermoScientific, Thermo Fisher Scientific, Segrate, Italy). After cell seeding, the plate was incubated for a day at 37 °C under standard culture conditions. […]
Cytotoxicity was assessed by measuring the release of lactate dehydrogenase (LDH) from damaged cells by the LDH Cytotoxicity Assay (ab197004, Abcam, Cambridge, UK), strictly following the instructions of the manufacturer. […] After 10 min shaking, the plate was read in fluorescence (excitation: 535 nm; emission 587 nm) by an Infinite 200 PRO mod. M PLEX multifunction plate reader (Tecan Group Ltd., Männedorf, Switzerland). […]
Data in relative fluorescence units (RFU) from the investigation on KSL-W suppression of S. aureus cytotoxicity were processed as follows. The mean of the duplicate readings from each single treated well was calculated. […]

Structure (SMILES): CC(C)[C@H](NC(=O)[C@H](Cc1c[nH]c2ccccc12)NC(=O)[C@H](Cc1ccccc1)NC(=O)[C@@H](NC(=O)[C@@H](NC(=O)[C@H](CCCCN)NC(=O)[C@@H](N)CCCCN)C(C)C)C(C)C)C(=O)N[C@@H](CCCCN)C(=O)N[C@@H](Cc1ccccc1)C(=O)N[C@@H](CCCCN)C(=O)O [KSL-W] (H-KKVVFWVKFK-OH)
- stability to enzymic activity such as trypsin-catalyzed cleavage [1]: greater stability
- concentration completely suppressing cytotoxicity due to S. aureus [2]: 75 µg/mL
